We go through 40 compounds from patent publication US8338465B2, “Cyclic carboxylic acid rhodanine derivatives for the treatment and prevention of tuberculosis” (priority 2006, dated 2012).

SMILES strings stand for the structures.

The IC50 is the midpoint of a concentration-inhibition curve.

For one assay, the target named is T1, dihydrolipoamide acyltransferase (DlaT) (Mycobacterium tuberculosis, UniProt P9WIS7).
T1 sequence (P9WIS7 1-553): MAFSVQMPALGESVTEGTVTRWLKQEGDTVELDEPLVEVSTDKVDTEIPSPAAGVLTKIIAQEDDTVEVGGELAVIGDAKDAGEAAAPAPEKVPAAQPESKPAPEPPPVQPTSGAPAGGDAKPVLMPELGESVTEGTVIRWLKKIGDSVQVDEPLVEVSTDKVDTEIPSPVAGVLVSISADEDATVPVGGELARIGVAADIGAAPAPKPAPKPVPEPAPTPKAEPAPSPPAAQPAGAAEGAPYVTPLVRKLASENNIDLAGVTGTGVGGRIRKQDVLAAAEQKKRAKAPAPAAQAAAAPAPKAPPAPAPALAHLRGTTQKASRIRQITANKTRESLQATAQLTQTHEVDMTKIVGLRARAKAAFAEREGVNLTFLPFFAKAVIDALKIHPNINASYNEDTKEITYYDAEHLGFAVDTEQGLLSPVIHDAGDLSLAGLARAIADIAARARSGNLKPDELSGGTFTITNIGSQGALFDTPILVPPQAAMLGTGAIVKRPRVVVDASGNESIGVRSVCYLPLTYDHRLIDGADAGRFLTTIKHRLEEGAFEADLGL
As to the kind of experiment: DlaT inhibition (Dlat IC50); DTNB peroxidase assay with Lpd, DlaT and AhpD. The format is biochemical. The note with it: Dlat IC50 category.
On to `O=C(O)c1ccccc1NN1C(=O)C(=Cc2ccc(-c3ccc(F)cc3)o2)SC1=S` [Compound D45, 2-{5-[1-[5-(4-fluoro-phenyl)-furan-2-yl]-methylidene]-4-oxo-2-thioxo-thiazolidin-3-ylamino}-benzoic acid], for which the concentration for half-maximal inhibition (IC50) was less than 10 µM. In turn, `O=C(O)c1ccccc1NN1C(=O)C(=Cc2ccc(-c3ccc(OCc4ccccc4)cc3)o2)SC1=S` [Compound D48, 2-{5-[1-[5-(4-benzyloxy-phenyl)-furan-2-yl]-methylidene]-4-oxo-2-thioxo-thiazolidin-3-ylamino}-benzoic acid] showed an IC50 of 11 to 40 µM. In turn, `CCCCOc1ccc(-c2ccc(C=C3SC(=S)N(Nc4ccccc4C(=O)O)C3=O)o2)cc1` [Compound D49, 2-{5-[1-[5-(4-butoxy-phenyl)-furan-2-yl]-methylidene]-4-oxo-2-thioxo-thiazolidin-3-ylamino}-benzoic acid] showed an IC50 of less than 10 µM. As for `CS(=O)(=O)c1ccc(-c2ccc(C=C3SC(=S)N(Nc4ccccc4C(=O)O)C3=O)o2)cc1` [Compound D50, 2-{5-[5-(4-methanesulfonyl-phenyl)-furan-2-ylmethylene]-4-oxo-2-thioxo-thiazolidin-3-ylamino}-benzoic acid], the IC50 is less than 10 µM.

In turn, `Cc1ccccc1-c1ccc(C=C2SC(=S)N(Nc3ccccc3C(=O)O)C2=O)o1` [Compound D51, 2-{4-oxo-2-thioxo-5-[1-(5-o-tolyl-furan-2-yl)-methylidene]-thiazolidin-3-ylamino}-benzoic acid] yielded an IC50 of less than 10 µM.

With `CSc1cccc(-c2ccc(C=C3SC(=S)N(Nc4ccccc4C(=O)O)C3=O)o2)c1` [Compound D52, 2-{5-[1-[5-(3-methylsulfanyl-phenyl)-furan-2-yl]-methylidene]-4-oxo-2-thioxo-thiazolidin-3-ylamino}-benzoic acid], the 50% inhibitory concentration (IC50) was less than 10 µM. `CSc1ccc(-c2ccc(C=C3SC(=S)N(Nc4ccccc4C(=O)O)C3=O)o2)cc1` [Compound D53, 2-{5-[1-[5-(4-methylsulfanyl-phenyl)-furan-2-yl]-methylidene]-4-oxo-2-thioxo-thiazolidin-3-ylamino}-benzoic acid] registered an IC50 of 11 to 40 µM.

`CC(C)Oc1ccc(-c2ccc(C=C3SC(=S)N(Nc4ccccc4C(=O)O)C3=O)o2)cc1` [Compound D54, 2-{5-[5-(4-isopropoxy-phenyl)-furan-2-ylmethylene]-4-oxo-2-thioxo-thiazolidin-3-ylamino}-benzoic acid] came in with an IC50 of less than 10 µM. `Cc1ccc(-c2cccc(C=C3SC(=S)N(Nc4ccccc4C(=O)O)C3=O)c2)cc1` [Compound D55, 2-{5-[1-(4′-methyl-biphenyl-3-yl)-methylidene]-4-oxo-2-thioxo-thiazolidin-3-ylamino}-benzoic acid] came in with an IC50 of less than 10 µM. On the same count and under the same terms, the same measure for `Cc1ccc(-c2ccc(C=C3SC(=S)N(Nc4ccccc4C(=O)O)C3=O)cc2)cc1` [Compound D56, 2-{5-[1-(4′-methyl-biphenyl-4-yl)-methylidene]-4-oxo-2-thioxo-thiazolidin-3-ylamino}-benzoic acid]: 11 to 40 µM; for `O=C(O)c1ccccc1NN1C(=O)C(=Cc2ccc(-c3ccccc3-c3ccccc3)o2)SC1=S` [Compound D57, 2-{5-[1-(5-biphenyl-2-yl-furan-2-yl)-methylidene]-4-oxo-2-thioxo-thiazolidin-3-ylamino}-benzoic acid]: less than 10 µM. `CCc1ccccc1-c1ccc(C=C2SC(=S)N(Nc3ccccc3C(=O)O)C2=O)o1` [Compound D58, 2-{5-[1-[5-(2-ethyl-phenyl)-furan-2-yl]-methylidene]-4-oxo-2-thioxo-thiazolidin-3-ylamino}-benzoic acid] had an IC50 of less than 10 µM.

Take `CCCCc1ccc(-c2ccc(C=C3SC(=S)N(Nc4ccccc4C(=O)O)C3=O)o2)cc1` [Compound D59, 2-{5-[1-[5-(4-butyl-phenyl)-furan-2-yl]-methylidene]-4-oxo-2-thioxo-thiazolidin-3-ylamino}-benzoic acid]: the half-inhibitory concentration (IC50) was less than 10 µM. Same read-out and setting: the same measure for `CCCc1ccc(-c2ccc(C=C3SC(=S)N(Nc4ccccc4C(=O)O)C3=O)o2)cc1` [Compound D60, 2-{5-[1-[5-(4-propyl-phenyl)-furan-2-yl]-methylidene]-4-oxo-2-thioxo-thiazolidin-3-ylamino}-benzoic acid]: less than 10 µM. For `O=C(O)c1cccc(N2C(=O)C(=Cc3ccc(-c4cc5ccccc5s4)o3)SC2=S)c1` [Compound I1], the IC50 is less than 10 µM.

The assay is the same for the next values; noted with them: Dlat IC50 category, Table 7, Compounds G1 to G4.
Take `O=C(O)c1cccc(CCN2C(=O)C(=Cc3ccc(-c4ccccc4Cl)o3)SC2=S)c1` [Compound G1]: the IC50 is less than 10 µM. On the same count and under the same terms, the same measure for `O=C(O)c1cccc(CCN2C(=O)C(=Cc3ccc(-c4cccc(C(F)(F)F)c4)o3)SC2=S)c1` [Compound G2]: less than 10 µM; for `O=C(O)c1cccc(CCN2C(=O)C(=Cc3ccc(-c4cc(C(F)(F)F)ccc4Cl)o3)SC2=S)c1` [Compound G3]: less than 10 µM; for `O=C(O)c1cccc(CCN2C(=O)C(=Cc3ccc(-c4cc(Cl)ccc4Cl)o3)SC2=S)c1` [Compound G4]: less than 10 µM.

Staying with this assay, now noted: Dlat IC50 category, Table 10, Compounds J1 to J3.
On to `O=C(O)C(Cc1ccccc1)N1C(=O)C(=Cc2ccc(-c3cc4ccccc4s3)o2)SC1=S` (stereo not shown) [Compound J3], for which the IC50 is less than 10 µM.

Still in this assay, the particulars now being: Dlat IC50 category, Table 13, Compounds M1 to M4.
`O=C(O)c1cncc(N2C(=O)C(=Cc3ccc(-c4ccccc4Cl)o3)SC2=S)c1` [Compound M1] came in with a 50% inhibitory concentration (IC50) of less than 10 µM. Consider `O=C(O)c1cncc(N2C(=O)C(=Cc3ccc(-c4cccc(C(F)(F)F)c4)o3)SC2=S)c1` [Compound M2], for which the concentration for half-maximal inhibition (IC50) was less than 10 µM. Take `CC(C)(C)c1ccc(-c2ccc(C=C3SC(=S)N(c4cncc(C(=O)O)c4)C3=O)o2)cc1` [Compound M3]: the IC50 is less than 10 µM.

Consider `N#Cc1c(F)cccc1-c1ccc(C=C2SC(=S)N(c3cncc(C(=O)O)c3)C2=O)o1` [Compound M4], for which the half-inhibitory concentration (IC50) was in the range of 11 to 40 µM.

Still in this assay, the particulars now being: Dlat IC50 category, Table 14, Compounds N1 to N3.
In turn, `O=C(O)c1cccc(N2C(=O)C(=Cc3ccc(Cc4ccccc4Cl)o3)SC2=S)c1` [Compound N1] registered a 50% inhibitory concentration (IC50) of less than 10 µM. The same measure, in the same setting: under `COc1ccc(C(=O)O)cc1N1C(=O)C(=Cc2ccc(Cc3ccccc3Cl)o2)SC1=S` [Compound N2] stands 11 to 40 µM; under `O=C(O)c1cc(N2C(=O)C(=Cc3ccc(Cc4ccccc4Cl)o3)SC2=S)ccc1O` [Compound N3], less than 10 µM.

Still in this assay, the particulars now being: Dlat IC50 category, Table 16, Compounds P1 to P2.
Turning to `O=C(O)C(c1ccccc1)N1C(=O)C(=Cc2cccc(-c3ccc(Cl)s3)n2)SC1=S` (stereo not shown) [Compound P1], the concentration for half-maximal inhibition (IC50) was less than 10 µM. The same measure, in the same setting: the same measure for `O=C(O)CCN1C(=O)C(=Cc2cccc(-c3ccc(Cl)s3)n2)SC1=S` [Compound P2]: 11 to 40 µM.

The assay is the same for the next values; noted with them: Dlat IC50 category, Table 17, Compounds Q1 to Q9.
On to `O=C(O)c1cccc(N2C(=O)C(=Cc3ccc(-c4cncnc4)o3)SC2=S)c1` [Compound Q1], for which the IC50 lay in the range of 11 to 40 µM. Still for that read-out and setting: under `O=C(O)c1ccc(N2C(=O)C(=Cc3ccc(-c4cncnc4)o3)SC2=S)cc1` [Compound Q2] stands 11 to 40 µM. Still for that read-out and setting: under `NS(=O)(=O)c1ccc(N2C(=O)C(=Cc3ccc(-c4cncnc4)o3)SC2=S)cc1` [Compound Q3] stands 11 to 40 µM. On the same count and under the same terms, under `O=C(O)c1cccc(N2C(=O)C(=Cc3ccc(-c4ccncc4)o3)SC2=S)c1` [Compound Q4] stands 11 to 40 µM; under `O=C(O)c1cc(N2C(=O)C(=Cc3ccc(-c4ccsc4Cl)o3)SC2=S)ccc1O` [Compound Q5], 11 to 40 µM. The compound `O=C(O)c1cccc(N2C(=O)C(=Cc3ccc(-c4ccc5nonc5c4)o3)SC2=S)c1` [Compound Q9] came in with an IC50 of 11 to 40 µM.

Staying with this assay, now noted: Dlat IC50 category, Table 20, Prodrugs (Compounds T1 to T8).
Consider `O=C(OCCCCO)c1cccc(N2C(=O)C(=Cc3ccc(-c4ccccc4Cl)o3)SC2=S)c1` [Compound T1, 3-{5-[1-[5-(2-Chloro-phenyl)-furan-2-yl]-methylidene]-4-oxo-2-thioxo-thiazolidin-3-yl}-benzoic acid 4-hydroxy-butyl ester], for which the IC50 lay in the range of 41 to 80 µM.

`O=C(OCCCO)c1cccc(N2C(=O)C(=Cc3ccc(-c4ccccc4Cl)o3)SC2=S)c1` [Compound T2, 3-{5-[1-[5-(2-Chloro-phenyl)-furan-2-yl]-methylidene]-4-oxo-2-thioxo-thiazolidin-3-yl}-benzoic acid 3-hydroxy-propyl ester]: the half-inhibitory concentration (IC50) was 41 to 80 µM. Same read-out and setting: under `O=C(OCCCCOP(=O)(O)O)c1cccc(N2C(=O)C(=Cc3ccc(-c4ccccc4Cl)o3)SC2=S)c1` [Compound T3, 3-{5-[1-[5-(2-Chloro-phenyl)-furan-2-yl]-methylidene]-4-oxo-2-thioxo-thiazolidin-3-yl}-benzoic acid 4-phosphonooxy-butyl ester] stands 41 to 80 µM. In the case of `O=C(OCC(CO)CO)c1cccc(N2C(=O)C(=Cc3ccc(-c4ccccc4Cl)o3)SC2=S)c1` [Compound T4, 3-{5-[1-[5-(2-Chloro-phenyl)-furan-2-yl]-methylidene]-4-oxo-2-thioxo-thiazolidin-3-yl}-benzoic acid 3-hydroxy-2-hydroxymethyl-propyl ester], the concentration for half-maximal inhibition (IC50) fell in the range of 11 to 40 µM.

Staying with this assay, now noted: read-out: Dlat IC50 category.
With `O=C(O)c1cccc(CCN2C(=O)C(=Cc3ccc(-c4cc5ccccc5s4)o3)SC2=S)c1` [Compound H1], the half-inhibitory concentration (IC50) was 11 to 40 µM.
